How the values were obtained:
[1] = molecular target: T1, α1G T-type calcium channel (Homo sapiens, UniProt O43497); test: Assay for % inhibiting activity against T-type calcium channel using FDSS6000 (fluo-3 calcium imaging, KCl activation); format: cell-based; settings: 10 μM; HEK293 cells stably expressing α1G T-type calcium channel and Kir2.1; compounds of the examples
T1 construct: host or cells: HEK293
How it was run: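 HEK293 cells stably expressing α1G and Kir2.1 loaded with 5 μM fluo-3/AM, then in HEPES buffer (pH 7.4) with 10 mM CaCl2. Compound applied 75 s before 75 mM KCl; intracellular Ca2+ read as […] area, % inhibition relative to untreated control.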

[2] = molecular target: T1, α1G T-type calcium channel; test: Electrophysiological whole cell patch clamp measurement of T-type calcium channel current in HEK293 cells; format: cell-based; settings: HEK293 cells expressing α1G; for HEK293cell (% Inhibition) 10 μM: inhibition of peak current; for IC50: read-out: IC50 (a1G)
Experimental: In the present invention, in order to examine an efficient inhibitor against the T-type calcium channel, a primary assay for T-type calcium channel inhibiting activity was conducted by a high-efficient assay using FDSS6000, wherein mammal HEK293 cell lines (originated from human kidney carcinoma cells) that specifically express α1G of the T-type calcium channel was used for primary assay. Through the primary assay, compounds that show meaningful inhibition effects were selected. The selected compounds were used in a second assay for T-type calcium channel inhibiting activity using an electrophysiological whole cell patch clamp method, wherein mammal HEK293 cell lines (originated from human kidney carcinoma cells) that specifically express α1G of the T-type calcium channel was used for the second assay. Mibefradil, which had been developed as a T-type calcium channel inhibitor, was used as a reference.
10% Fetal bovine serum (FBS) and 1% penicillin/streptomycin (v/v) were added to Dulbecco's modified Eagle's medium (DMEM), to be used as a media solution. The cells were cultured in an incubator under a wet condition of 95% air/5% CO2 and a temperature of 36.5° C. The media solution was refreshed every 3 or 4 days, and the cells were sub-cultured every week. Only the cells that expressed α1G T-type calcium channel were cultured using a G-418 (0.5 mg/ml) solution. The recording of the cells used in the T-type calcium channel activity analysis was conducted at 2-7 days after the cells were culturing on a cover slip coated with poly-L-lysine (0.5 mg/ml) when conducting every sub-culture. For analysis at a single cell level, the T-type calcium channel current was measured by an electrophysiological whole cell patch clamp method using EPC-9 amplifier (HEKA, German).
As solutions for analyzing T-type calcium channel activity, a solution including NaCl 140 mM, CaCl2 2 mM, and HEPES10 mM (pH 7.4, Sigma; 4-(2-hydroxyethyl)piperazine-1-ethanesulfonic acid) was used as an extracellular solution, and a solution including KCl 130 mM, HEPES 10 mM (Sigma), EGTA 11 mM (ethylene glycol-bis(2-aminoethylether)-N,N,N′,N′-tetraacetic acid, Sigma), and MgATP 5 mM (pH 7.4, Sigma) was used as an intracellular solution. The protocol for T-type calcium channel activity that is activated at low voltage is as follows. A micro-glass electrode with resistance of 3-4 MΩ wherein the above-prepared intracellular solution was filled was pricked into a single cell, to make a whole-cell recording mode. Thereafter, the cell membrane potential was fixed to −100 mV, and then the inward current due to the T-type calcium channel activity when hypopolarizing to −30 mV (50 ms duration) was measured every 10 seconds.
Each compound to be tested was dissolved in 100% dimethylsulfoxide (DMSO) to make a 10 mM stock solution. The effect of the compound on the T-type calcium channel current compound was initially examined in the stock solution with the 1000-times diluted concentration of 10 μM (containing 0.1% DMSO) and then examined in the solution with the concentration for IC50 measurement (mostly 0.1 to 100 μM), to obtain an IC50 value. More specifically, the cells were treated in each compound together with the extracellular solution for 30 to 60 seconds, and the inhibition level of peak current induced by the compound was calculated as a percentage, to obtain the % inhibition value as shown in Table 4.

T1 sequence (O43497 whole entry): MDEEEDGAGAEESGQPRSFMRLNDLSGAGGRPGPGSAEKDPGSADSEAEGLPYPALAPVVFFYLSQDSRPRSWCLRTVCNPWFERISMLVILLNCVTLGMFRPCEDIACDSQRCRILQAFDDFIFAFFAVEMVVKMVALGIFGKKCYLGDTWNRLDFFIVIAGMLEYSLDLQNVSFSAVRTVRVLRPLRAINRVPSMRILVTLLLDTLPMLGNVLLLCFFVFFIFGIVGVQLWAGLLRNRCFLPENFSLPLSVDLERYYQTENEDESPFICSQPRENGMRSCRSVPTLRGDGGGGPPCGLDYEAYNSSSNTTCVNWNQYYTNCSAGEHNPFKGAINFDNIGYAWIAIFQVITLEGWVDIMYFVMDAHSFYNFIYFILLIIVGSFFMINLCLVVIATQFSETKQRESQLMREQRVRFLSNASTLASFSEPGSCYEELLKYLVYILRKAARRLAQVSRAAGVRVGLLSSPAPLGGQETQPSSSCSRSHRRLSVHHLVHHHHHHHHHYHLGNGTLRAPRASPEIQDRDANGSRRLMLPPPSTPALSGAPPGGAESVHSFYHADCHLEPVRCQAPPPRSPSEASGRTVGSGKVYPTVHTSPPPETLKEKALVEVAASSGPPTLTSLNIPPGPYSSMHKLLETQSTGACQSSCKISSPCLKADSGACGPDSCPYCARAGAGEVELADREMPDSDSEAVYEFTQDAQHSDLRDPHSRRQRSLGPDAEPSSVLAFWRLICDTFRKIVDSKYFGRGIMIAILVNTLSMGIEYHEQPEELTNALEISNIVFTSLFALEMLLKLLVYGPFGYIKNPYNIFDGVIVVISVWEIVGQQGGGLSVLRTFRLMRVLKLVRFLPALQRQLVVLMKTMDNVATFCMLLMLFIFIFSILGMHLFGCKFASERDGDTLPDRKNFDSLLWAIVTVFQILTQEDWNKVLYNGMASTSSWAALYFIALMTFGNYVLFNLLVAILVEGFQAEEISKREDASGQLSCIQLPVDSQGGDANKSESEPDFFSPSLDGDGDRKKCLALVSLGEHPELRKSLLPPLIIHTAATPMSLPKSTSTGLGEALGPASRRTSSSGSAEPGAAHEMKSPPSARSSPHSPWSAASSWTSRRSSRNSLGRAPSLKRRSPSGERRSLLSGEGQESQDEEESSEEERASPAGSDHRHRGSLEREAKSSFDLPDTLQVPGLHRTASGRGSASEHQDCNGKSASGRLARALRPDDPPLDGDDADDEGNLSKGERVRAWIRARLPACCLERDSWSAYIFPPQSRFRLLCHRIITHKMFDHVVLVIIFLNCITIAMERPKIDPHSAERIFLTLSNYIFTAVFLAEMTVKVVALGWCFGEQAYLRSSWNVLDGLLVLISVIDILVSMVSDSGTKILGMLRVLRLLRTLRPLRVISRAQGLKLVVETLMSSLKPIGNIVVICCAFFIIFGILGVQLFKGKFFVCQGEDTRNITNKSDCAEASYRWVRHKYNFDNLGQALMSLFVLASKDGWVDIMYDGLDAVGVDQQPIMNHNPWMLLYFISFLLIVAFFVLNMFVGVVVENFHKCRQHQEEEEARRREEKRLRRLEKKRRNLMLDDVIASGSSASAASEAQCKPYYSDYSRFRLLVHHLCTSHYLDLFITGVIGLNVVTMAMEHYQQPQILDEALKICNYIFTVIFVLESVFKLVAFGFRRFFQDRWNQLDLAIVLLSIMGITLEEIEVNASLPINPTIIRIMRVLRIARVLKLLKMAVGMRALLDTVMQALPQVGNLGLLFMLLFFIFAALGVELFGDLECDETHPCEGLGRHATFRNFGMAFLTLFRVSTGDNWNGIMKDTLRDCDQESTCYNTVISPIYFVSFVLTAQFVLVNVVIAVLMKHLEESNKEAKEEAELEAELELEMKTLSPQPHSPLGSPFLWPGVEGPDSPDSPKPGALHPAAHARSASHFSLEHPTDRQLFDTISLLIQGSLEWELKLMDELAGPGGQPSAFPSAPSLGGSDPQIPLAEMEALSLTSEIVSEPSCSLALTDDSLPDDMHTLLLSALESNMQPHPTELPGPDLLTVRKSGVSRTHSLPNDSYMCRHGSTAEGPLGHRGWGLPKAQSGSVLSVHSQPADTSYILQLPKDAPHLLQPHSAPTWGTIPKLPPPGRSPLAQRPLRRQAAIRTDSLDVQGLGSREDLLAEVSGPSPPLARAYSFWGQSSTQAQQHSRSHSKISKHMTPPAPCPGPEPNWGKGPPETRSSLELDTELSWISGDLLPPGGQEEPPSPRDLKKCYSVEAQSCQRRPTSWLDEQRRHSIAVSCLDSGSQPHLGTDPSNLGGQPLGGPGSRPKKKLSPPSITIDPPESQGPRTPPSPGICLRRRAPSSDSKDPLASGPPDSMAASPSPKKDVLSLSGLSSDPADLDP

Substance | FDSS (% inhibition)/10uM [1] | HEK293cell (% Inhibition) 10 μM [2] | IC50 [2]
(2-cycloheptylimino-3-methyl-1,3-thiazolidine-4-yl)-N-(4-fluorophenyl)-acetamide hydrochloride [KHG24118] | 66% | 80.3 ± 1.1% | 1880 ± 220 nM
(2-cycloheptylimino-3-methyl-1,3-thiazolidine-4-yl)-N-(4-isopropylphenyl)-acetamide hydrochloride [KHG24133] | 69.18% | 96.0 ± 1.9% | 420 ± 10 nM
(2-cycloheptylimino-3-methyl-1,3-thiazolidine-4-yl)-N-(4-methoxybenzyl)-acetamide hydrochloride [KHG24161] | 31.29% | 81.2 ± 1.3% | 1670 ± 510 nM
(2-cycloheptylimino-3-methyl-1,3-thiazolidine-4-yl)-N-(4-methoxyphenyl)-acetamide hydrochloride [KHG24119] | 52.85% | 72.9 ± 1.0% | 4440 ± 280 nM
(2-cycloheptylimino-3-methyl-1,3-thiazolidine-4-yl)-N-(4-methyl-2-chlorophenyl)-acetamide hydrochloride [KHG24124] | 59.49% | 87.1 ± 1.2% | 1770 ± 100 nM
(2-cycloheptylimino-3-methyl-1,3-thiazolidine-4-yl)-N-(4-n-butylphenyl)-acetamide hydrochloride [KHG24134] | 75.92% | 95.1 ± 2.0% | 340 ± 30 nM
(2-cycloheptylimino-3-methyl-1,3-thiazolidine-4-yl)-N-(4-phenoxyphenyl)-acetamide hydrochloride [KHG24123] | 76.6% | 94.2 ± 2.0% | 1090 ± 200 nM
(2-cycloheptylimino-3-methyl-1,3-thiazolidine-4-yl)-N-(5-chloro-2-fluorophenyl)-acetamide hydrochloride [KHG24128] | 62.56% | 88.1 ± 1.9% | 550 ± 10 nM
(2-cycloheptylimino-3-methyl-1,3-thiazolidine-4-yl)-N-phenyl-acetamide hydrochloride [KHG24132] | 50.94% | 76.8 ± 1.0% | 5000 ± 1970 nM
(2-cyclohexylimino-3-methyl-1,3-thiazolidine-4-yl)-N-(2-fluoro-5-nitrophenyl)-acetamide hydrochloride [KHG23360] | 66.64% | 87.8 ± 2.2% | 780 ± 80 nM
(2-cyclohexylimino-3-methyl-1,3-thiazolidine-4-yl)-N-(2-trifluoromethylphenyl)-acetamide hydrochloride [KHG24083] | 47.92% | 76.5 ± 2.3% | 3630 ± 540 nM
(2-cyclohexylimino-3-methyl-1,3-thiazolidine-4-yl)-N-(3,5-dichlorophenyl)-acetamide hydrochloride [KHG23356] | 60.46% | 97.0 ± 0.7% | 230 ± 10 nM
(2-cyclohexylimino-3-methyl-1,3-thiazolidine-4-yl)-N-(3,5-ditrifluoromethylphenyl)-acetamide hydrochloride [KHG24075] | 73.72% | 94.1 ± 1.5% | 320 ± 20 nM
(2-cyclohexylimino-3-methyl-1,3-thiazolidine-4-yl)-N-(3-chloro-4-methylphenyl)-acetamide hydrochloride [KHG24072] | 63.5% | 91.2 ± 1.6% | 990 ± 30 nM
(2-cyclohexylimino-3-methyl-1,3-thiazolidine-4-yl)-N-(3-trifluoromethylphenyl)-acetamide hydrochloride [KHG24084] | 58.61% | 82.2 ± 1.4% | 2790 ± 110 nM
(2-cyclohexylimino-3-methyl-1,3-thiazolidine-4-yl)-N-(4-bromophenyl)-acetamide hydrochloride [KHG23354] | 54.26% | 83.0 ± 1.4% | 2470 ± 180 nM
(2-cyclohexylimino-3-methyl-1,3-thiazolidine-4-yl)-N-(4-chloro-2-fluorophenyl)-acetamide hydrochloride [KHG23361] | 62.4% | 71.4 ± 3.4% | 4090 ± 700 nM
(2-cyclohexylimino-3-methyl-1,3-thiazolidine-4-yl)-N-(4-chlorobenzyl)-acetamide hydrochloride [KHG24113] | 54.13% | 64.8 ± 1.4% | 5400 ± 410 nM
(2-cyclohexylimino-3-methyl-1,3-thiazolidine-4-yl)-N-(4-chlorophenyl)-acetamide hydrochloride [KHG23362] | 66.17% | 89.3 ± 0.9% | 530 ± 30 nM
(2-cyclohexylimino-3-methyl-1,3-thiazolidine-4-yl)-N-(4-fluorophenyl)-acetamide hydrochloride [KHG23210] | 46.69% | 59.6 ± 1.5% | 6500 ± 500 nM
(2-cyclohexylimino-3-methyl-1,3-thiazolidine-4-yl)-N-(4-isopropylphenyl)-acetamide hydrochloride [KHG23364] | 53% | 97.0 ± 0.7% | 870 ± 180 nM
(2-cyclohexylimino-3-methyl-1,3-thiazolidine-4-yl)-N-(4-methylphenyl)-acetamide hydrochloride [KHG24077] | 46.41% | 57.0 ± 1.5% | 7220 ± 360 nM
(2-cyclohexylimino-3-methyl-1,3-thiazolidine-4-yl)-N-(4-n-butylphenyl)-acetamide hydrochloride [KHG23365] | 60.16% | 97.6 ± 0.5% | 600 ± 60 nM
(2-cyclohexylimino-3-methyl-1,3-thiazolidine-4-yl)-N-(4-phenoxyphenyl)-acetamide hydrochloride [KHG23355] | 58.95% | 88.1 ± 2.0% | 1510 ± 170 nM
(2-cyclohexylimino-3-methyl-1,3-thiazolidine-4-yl)-N-(4-trifluoromethylphenyl)-acetamide hydrochloride [KHG24074] | 65.2% | 94.7 ± 0.5% | 660 ± 60 nM
[2-(1-adamantyl)imino-3-methyl-1,3-thiazolidine-4-yl]-N-(3,5-ditrifluoromethylphenyl)-acetamide hydrochloride [KHG24241] | 70.68% | 92.2 ± 0.5% | 170 ± 20 nM
[2-(1-adamantyl)imino-3-methyl-1,3-thiazolidine-4-yl]-N-(4-bromophenyl)-acetamide hydrochloride [KHG24239] | 69.55% | 96.5 ± 1.3% | 610 ± 70 nM
[2-(1-adamantyl)imino-3-methyl-1,3-thiazolidine-4-yl]-N-(4-chlorophenyl)-acetamide hydrochloride [KHG24238] | 73.31% | 95.9 ± 1.8% | 530 ± 20 nM
